Experimental data taken from patent US9650339B2, “Inhibitors of histone demethylases” (Gilead Sciences, Inc., priority 2013, dated 2017).

system: H3K4me3 mark; test: Histone lysine demethylase immunofluorescence assay, non-transfected U2OS cells; assay type: cell-based; settings: Homo sapiens, staining of the H3K4me3 mark, 20 hours incubation with compound
Procedure: U2OS cells were harvested and seeded into multi well plates into media containing compound. The media used was DMEM containing 5% FBS and pen/strep. 20 hours after incubation of cells with compounds, the cells were washed once in PBS, harvested by fixation with formaldehyde 4% aqueous solution, and washed in PBS. Subsequently, the cells were permeabilized in PBS with 0.2% Triton X-100. Blocking was performed in PBS with 0.2% Triton X-100 and 5% FBS. The cells were incubated with αH3K4me3 primary antibody (Cell Signaling, #9751S) in blocking solution over night at 4° C. After incubation with primary antibody, the cells were washed with PBS, incubated with secondary antibody (Alexa fluor 594 goat anti rabbit IgG, Invitrogen, A11012) and Hoechst, (Sigma, 33342) in blocking solution, and washed again with PBS. Finally, PBS was added and high throughput imaging and analysis were performed by an IN Cell Analyzer 1000 (GE Healthcare). The IC50 values were based on an average measure of the staining of the H3K4me3 mark in cells.

SMILES	IC50 [nM]
CN(C)CCCNCc1cc(CN)ccn1 [Compound 3, [2-({[3-(dimethylamino)propyl]-amino}methyl)pyridin-4-yl]methanamine]	< 250
CCN(CC)CCCCN(Cc1cc(CNC(=O)C(F)(F)F)ccn1)C(=O)C(F)(F)F [Compound 6, N-[4-(diethylamino)butyl]-- 2,2,2-trifluoro-N-({4-[(trifluoroacetamido)-methyl]pyridin-2-yl}methyl)acetamide]	< 250
NCc1ccnc(CNCCCCN2CCC2)c1 [Compound 7, [2-({[4-(azetidin-1-yl)butyl]amino}methyl)-pyridin-4-yl]-methanamine]	< 250
CC(C#N)NCc1ccnc(CNCCCN(C)C)c1 (stereo not shown) [Compound 22, 2-({[2-({[3-(dimethylamino)propyl]-amino}methyl)pyridin-4-yl]methyl}amino)-propanenitrile]	< 250
N#CCNCc1ccnc(CNCCCCN(Cc2ccccc2)C2CC2)c1 [Compound 23, 2-[({2-[({4-[benzyl(cyclopropyl)-amino]butyl}amino)-methyl]pyridin-4-yl}methyl)amino]-acetonitrile]	< 250
CN(C)C(=O)CNCc1cc(/C=N\C2CC2)ccn1 [Compound 33]	250 to 2500
CN1CCCC1CCNCc1cc(/C=N/C2CC2)ccn1 (stereo not drawn) [Compound 40, N-{[2-({[2-(l-methylpyrrolidin-2-yl)ethyl]amino}methyl)-pyridin-4-yl]methylidene}-cyclopropanamine]	< 250
CN(C)C/C=C/CNCc1cc(/C=N/C2CC2)ccn1 [Compound 43, N-{[2-({[(2E)-4-(dimethylamino)but-2-en-1-yl]amino}-methyl)pyridin-4-yl]methylidene}-cyclopropanamine]	< 250
CCCCCCCC/N=C/c1ccnc(CNCC(=O)N(CC)CC)c1 [Compound 58, N,N-diethyl-2-[({4-[(octylimino)methyl]-pyridin-2-yl}methyl)amino]-acetamide]	> 2500
CON=Cc1ccnc(CNCCCN(C)C)c1 [Compound 64, [3-(dimethylamino)-propyl]({4-[(methoxyimino)-methyl]pyridin-2-yl}methyl)amine]	250 to 2500
CN(C)CC1CCC(CNCc2cc(C=O)ccn2)CC1 (stereo not shown) [Compound 97, 2-{[({4-[(dimethylamino)-methyl]cyclohexyl}-methyl)amino]-methyl}pyridine-4-carbaldehyde]	< 250
CN(C)C/C=C\CNCc1cc(C=O)ccn1 [Compound 99, 2-({[(2Z)-4-(dimethylamino)-but-2-en-1-yl]amino}methyl)-pyridine-4-carbaldehyde]	250 to 2500
CN1CCC(CNCc2cc(C=O)ccn2)CC1 [Compound 100, 2-({[(1-methyl-piperidin-4-yl)methyl]amino}-methyl)pyridine-4-carbaldehyde]	< 250
CCN(CC)CCCCN(Cc1cc(C=O)ccn1)C(=O)C(F)(F)F [Compound 115, N-[4-(diethylamino)butyl]-2,2,2-trifluoro-N-[(4-formylpyridin-2-yl)methyl]acetamide]	< 250
CCN(CC(C)(C)N(C)C)C(=O)CNCc1cc(C=O)ccn1 [Compound 118, N-[2-(dimethylamino)-2-methylpropyl]-N-ethyl-2-{[(4-formylpyridin-2-yl)methyl]amino}-acetamide]	< 250

Further lines, results first:

IC50 [nM]	SMILES
< 250	CCN(CC)CCCCNCc1cc(CNC(=O)C(F)(F)F)ccn1 [Compound 1, N-{[2-({[4-(diethylamino)butyl]-amino}methyl)pyridin-4-yl]methyl}-2,2,2-trifluoroacetamide]
< 250	CN(C)CCCNCc1cc(/C=N/CCN(C)C)ccn1 [Compound 38, ({4-[{[2-(dimethylamino)ethyl]-imino}methyl]pyridin-2-yl}methyl)[3-(dimethylamino)-propyl]amine]
< 250	C(=N\C1CC1)/c1ccnc(CNCCCCN2CCC2)c1 [Compound 44, N-{[2-({[4-(azetidin-1-yl)butyl]amino}methyl)-pyridin-4-yl]methylidene}-cyclopropanamine]
250 to 2500	CCN(CC)C(=O)CNCc1cc(/C=N/CCC2CCCCC2)ccn1 [Compound 57, 2-[({4-[[(2-cyclohexylethyl)imino]-methyl]pyridin-2-yl}methyl)amino]-N,N-diethylacetamide]
< 250	CCN(CC)CCCCNCc1cc(/C=N/CCO)ccn1 [Compound 61, 2-[{[2-({[4-(diethylamino)-butyl]amino}-methyl)pyridin-4-yl]methylidene}-amino]ethan-1-ol]
< 250	CCN(CC)CCCCNCc1cc(/C=N/CC(F)(F)C(F)(F)F)ccn1 [Compound 62, {[2-({[4-(diethylamino)-butyl]amino}methyl)pyridin-4-yl]methylidene} (2,2,3,3,3-pentafluoropropyl)-amine]
< 250	CCN(CC)CCCCNCc1cc(/C=N\CCC2CCCCC2)ccn1 [Compound 67, (2-cyclohexylethyl)-({[2-({[4-(diethylamino)-butyl]amino}methyl)pyridin-4-yl]methylidene})-amine]
